From article PMC7508162 (Frontiers in Pharmacology, 2020)
Where two headings read alike, the source gives them in different places. Values belong to the molecule of their own block, whether it stands above or below them.

Legend:
[1] = target: T1, NTPDase3 (Homo sapiens, UniProt O75355); settings: read-out: Km (NTPDase3); substrate ATP; ref Kukulski et al., 2005; cited from earlier work
T1 sequence (O75355 1-529): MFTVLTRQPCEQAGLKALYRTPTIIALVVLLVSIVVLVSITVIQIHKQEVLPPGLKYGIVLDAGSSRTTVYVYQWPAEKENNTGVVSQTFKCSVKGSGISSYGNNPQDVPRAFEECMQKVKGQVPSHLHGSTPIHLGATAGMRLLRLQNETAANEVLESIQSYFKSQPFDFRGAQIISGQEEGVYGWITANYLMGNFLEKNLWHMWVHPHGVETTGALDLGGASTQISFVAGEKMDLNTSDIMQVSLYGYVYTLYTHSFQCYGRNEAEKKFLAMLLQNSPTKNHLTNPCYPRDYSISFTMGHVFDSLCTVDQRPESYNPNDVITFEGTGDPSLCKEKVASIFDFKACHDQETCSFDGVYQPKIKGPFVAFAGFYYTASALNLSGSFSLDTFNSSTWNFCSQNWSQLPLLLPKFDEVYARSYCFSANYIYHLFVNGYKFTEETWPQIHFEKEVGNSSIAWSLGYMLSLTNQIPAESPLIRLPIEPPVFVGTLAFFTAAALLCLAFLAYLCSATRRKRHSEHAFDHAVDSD

[2] = target: T2, NTPDase2 (Homo sapiens, UniProt Q9Y5L3); settings: read-out: Km (NTPDase2); substrate ATP; ref Kukulski et al., 2005; cited from earlier work
T2 sequence (Q9Y5L3 1-495): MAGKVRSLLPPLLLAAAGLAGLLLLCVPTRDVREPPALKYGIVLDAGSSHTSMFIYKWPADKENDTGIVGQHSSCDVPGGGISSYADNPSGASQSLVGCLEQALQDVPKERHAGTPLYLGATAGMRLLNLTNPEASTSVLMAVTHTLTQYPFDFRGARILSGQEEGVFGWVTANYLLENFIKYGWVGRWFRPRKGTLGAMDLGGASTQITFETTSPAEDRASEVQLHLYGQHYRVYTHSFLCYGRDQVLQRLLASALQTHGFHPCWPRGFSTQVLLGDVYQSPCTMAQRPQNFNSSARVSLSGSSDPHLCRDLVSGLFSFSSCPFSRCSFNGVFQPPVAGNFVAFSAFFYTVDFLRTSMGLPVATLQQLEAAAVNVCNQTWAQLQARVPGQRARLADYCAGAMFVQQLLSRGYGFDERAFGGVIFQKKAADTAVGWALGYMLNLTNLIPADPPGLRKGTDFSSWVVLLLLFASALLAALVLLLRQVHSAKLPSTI

[3] = target: T3, NTPDase8 (Homo sapiens, UniProt Q5MY95); settings: read-out: Km (NTPDase8); substrate ATP; ref Kukulski et al., 2005; cited from earlier work
T3 sequence (Q5MY95 1-495): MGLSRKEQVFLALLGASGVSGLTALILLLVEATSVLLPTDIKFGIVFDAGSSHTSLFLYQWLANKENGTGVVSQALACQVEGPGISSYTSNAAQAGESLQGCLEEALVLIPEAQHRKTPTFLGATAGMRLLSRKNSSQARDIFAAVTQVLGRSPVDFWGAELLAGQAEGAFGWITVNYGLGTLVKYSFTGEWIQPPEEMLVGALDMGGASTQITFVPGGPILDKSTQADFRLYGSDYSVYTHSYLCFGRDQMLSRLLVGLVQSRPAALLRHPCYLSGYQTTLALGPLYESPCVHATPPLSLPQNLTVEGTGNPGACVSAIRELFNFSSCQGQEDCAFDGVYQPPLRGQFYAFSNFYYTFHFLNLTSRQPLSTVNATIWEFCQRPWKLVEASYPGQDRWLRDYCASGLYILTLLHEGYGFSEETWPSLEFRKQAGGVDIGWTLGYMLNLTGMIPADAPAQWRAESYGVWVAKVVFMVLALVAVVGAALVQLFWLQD

[4] = target: T4, human CD39 (Homo sapiens, UniProt P49961); settings: read-out: Km (CD39); substrate ATP; ref Kukulski et al., 2005; cited from earlier work
T4 sequence (P49961 1-510): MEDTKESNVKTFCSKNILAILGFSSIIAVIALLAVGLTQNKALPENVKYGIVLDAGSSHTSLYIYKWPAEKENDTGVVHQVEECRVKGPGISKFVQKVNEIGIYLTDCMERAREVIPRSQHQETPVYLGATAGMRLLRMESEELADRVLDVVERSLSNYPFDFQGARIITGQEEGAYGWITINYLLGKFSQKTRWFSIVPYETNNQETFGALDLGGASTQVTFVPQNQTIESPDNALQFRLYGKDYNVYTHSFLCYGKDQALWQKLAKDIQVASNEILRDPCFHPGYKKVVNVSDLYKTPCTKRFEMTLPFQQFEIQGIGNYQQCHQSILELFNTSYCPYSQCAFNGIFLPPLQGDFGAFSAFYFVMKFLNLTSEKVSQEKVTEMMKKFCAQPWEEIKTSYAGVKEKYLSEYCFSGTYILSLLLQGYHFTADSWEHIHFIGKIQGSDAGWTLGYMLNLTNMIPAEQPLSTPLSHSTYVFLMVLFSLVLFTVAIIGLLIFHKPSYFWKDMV

[5] = target: T4, human CD39; test: Malachite green assay for CD39 (natural substrate ATP); format: biochemical; set-up: Human umbilical cord membrane preparations (250 ng) natively expressing high amounts of CD39; from tissue; host or cells: human umbilical cord membranes; settings: natural substrate ATP 50 µM, n = 3, read-out: Ki ± SEM (converted)
Method: (§1) They were minced and homogenized with a polytron in 95 mM NaCl, 0.1 mM phenylmethylsulfonyl fluoride (PMSF), and 45 mM Tris solution, pH 7.6. […] The pellets were resuspended in 5 mM Tris buffer solution, pH 8.0 and 10% glycerol. All purification steps were performed at 4°C. The preparations were kept at −80°C.
The reaction buffer contained 10 mM HEPES, 2 mM CaCl2, 1 mM MgCl2, pH 7.4 in a final volume of 50 μl in transparent 96-well half area plates. For CD39 (NTPDase1), we made use of human umbilical cord membranes preparations which express high levels of the enzyme. For the other human NTPDase isoenzymes, we had to resort to recombinant expression. […] The amount of enzyme preparation was adjusted to ensure 10–20% of substrate conversion. […] The released (inorganic) phosphate was quantified after 20 min of gentle shaking at 25°C by measuring the absorption of the malachite green-phosphomolybdate complex at 600 nm using a BMG PheraStar FS plate reader (BMG Labtech GmbH, Ortenberg, Germany).
% Inhibition=(B−T)/B*100%
where B is the average corrected absorption of the positive control without inhibitor and T the corrected absorption in the presence of test compound.
Full concentration-inhibition curves were determined with inhibitor concentrations ranging from 0.1 to 300 µM in the presence of 2% DMSO. Three independent experiments were performed (n = 3) and curves were calculated by the GraphPad Prism 8 software. The Ki value was calculated using the Cheng-Prusoff equation for competitive inhibitors: […]

[6] = target: T4, human CD39; test: Fluorescence capillary electrophoresis assay for CD39; format: biochemical; set-up: Human umbilical cord membrane preparations (250 ng) natively expressing high amounts of CD39; from tissue; host or cells: human umbilical cord membranes; settings: for Ki: fluorescent substrate PSB-017621A 0.5 µM, human umbilical cord membrane preparation, n = 3, Cheng-Prusoff, read-out: Ki ± SEM
Method: as §1
For inhibition screening, three independent experiments were performed. […] The reaction buffer contained 10 mM HEPES, 2 mM CaCl2, 1 mM MgCl2, pH 7.4. The samples were incubated at 37°C for 4 min, and the enzymatic reaction was terminated by heating at 90°C for 5 min. The solution was then diluted 1:20 with reaction buffer to perform separation of nucleotides by capillary electrophoresis (CE) followed by laser-induced fluorescence (LIF) detection. […] Three independent experiments were performed, and curves were calculated by GraphPad Prism 8 software (GraphPad software, San Diego, CA, USA).
Analysis was carried out using a P/ACE MDQ capillary electrophoresis system (Beckman Instruments, Fullerton, CA, USA). The separation was performed in a polyacrylamide-coated capillary [30 cm (10 cm effective length) × 50 µm (id), × 360 µm (od)]. Before each run, the capillary was rinsed with the background electrolyte [50 mM phosphate buffer (pH 6.5)] for 1 min at 30 psi. Samples were electrokinetically injected by applying a voltage of -6 kV for 30 s at the capillary outlet, and the fluorescent nucleotide derivatives were separated by voltage application of -15 kV. […] Data collection and peak area analysis were performed by the P/ACE MDQ software 32 KARAT obtained from Beckman Coulter (Fullerton, CA, USA).

[7] = target: rat CD39; set-up: method as in Baqi et al., 2009; settings: Figure 2, ref Baqi et al., 2009, read-out: Ki (reported potency); cited from earlier work
[8] = target: T4, human CD39; set-up: Human umbilical cord membrane preparations (250 ng) natively expressing high amounts of CD39; from tissue; host or cells: human umbilical cord membranes; method as in Lee et al., 2018; settings: fluorescent substrate of CD39; ref Lee et al., 2018; cited from earlier work
[9] = target: T4, human CD39; set-up: Human umbilical cord membrane preparations (250 ng) natively expressing high amounts of CD39; from tissue; host or cells: human umbilical cord membranes; settings: Figure 2, ref Crack et al., 1995, Müller et al., 2006, Lévesque et al., 2007, Baqi et al., 2009, Lecka et al., 2013, Lee et al., 2015, Kanwal et al., 2019, read-out: Ki (reported potency); cited from earlier work

Compound: Nc1ncnc2c1ncn2[C@@H]1O[C@H](COP(=O)(O)OP(=O)(O)OP(=O)(O)O)[C@@H](O)[C@H]1O [ATP]
Km [1]: 75 µM | Km [2]: 70 µM | Km [3]: 46 µM | Km [4]: 17 µM

Ki [5]: 5.98 µM | Ki [6]: 7.48 ± 1.29 µM
Compound: CCCCSc1nc2c(N(CC)CC)ncnc2n1[C@@H]1O[C@H](COP(=O)(O)OP(=O)(O)C(Br)(Br)P(=O)(O)O)[C@@H](O)[C@H]1O [Compound 37, (Dibromo((((((2R,3S,4R,5R)-5-(8-(butylthio)-6-(diethylamino)-9H-purin-9-yl)-3,4-dihydroxy-tetrahydrofuran-2-yl)methoxy)(hydroxy)phosphoryl)oxy)-(hydroxy)phosphoryl)methyl)phosphonic Acid]

Ki [5]: 4.55 µM | Ki [6]: 10.6 ± 0.4 µM | IC50 (in words) ([6]; human CD39): low micromolar range | fold less potent than dibromo-derivative 38 at CD39 ([6]; ratio of Ki values, fluorescence CE assay): about 2 fold
Compound: Nc1ncnc2c1ncn2[C@@H]1O[C@H](COP(=O)(O)OP(=O)(O)C(F)(F)P(=O)(O)O)[C@@H](O)[C@H]1O [Compound 40, (((((((2R,3S,4R,5R)-5-(6-Amino-9H-purin-9-yl)-3,4-dihydroxytetrahydrofuran-2-yl)methoxy)-(hydroxy)-phosphoryl)oxy)(hydroxy)phosphoryl)difluoromethyl)-phosphonic Acid]

Compound: Nc1ncnc2c1ncn2[C@@H]1O[C@H](COP(=O)(O)CP(=O)(O)OP(=O)(O)O)[C@@H](O)[C@H]1O [Compound 41, α,β-Methylene-ATP, reference compound]
Ki [5]: 7.2 µM | Ki [6]: 0.632 ± 0.024 µM

Compound: Nc1c(S(=O)(=O)O)cc(Nc2ccc3ccccc3c2)c2c1C(=O)c1ccccc1C2=O [III, 1-Amino-2-sulfo-4-(2-naphthylamino)-anthraquinone]
Ki [7]: 0.33 µM

Compound: O=C(NCCCCCCNc1ncnc2c1ncn2[C@@H]1O[C@H](COP(=O)(O)OP(=O)(O)OP(=O)(O)O)[C@@H](O)[C@H]1O)c1ccc2c(c1)C(=O)OC21c2ccc(O)cc2Oc2cc(O)ccc21 [PSB-017621A, N^6-[6-(Fluoresceinyl-5′-carboxamido)hexyl]-ATP]
Km [8]: 19.6 µM

Compound: Oc1c(Cl)cc(Cl)cc1/C=N/CCc1c[nH]c2ccccc12 [Tryptamine derivative (V)]
Ki [9]: 0.021 µM
